Measurements taken from patent publication EP0205068B1, “Lysergic-acid amides, process for their preparation and medicaments containing them” (ARZNEIMITTELWERK DRESDEN GmbH, priority 1985, dated 1986).
Values joined by “and” are separate entries in the source; they are usually repeats but may differ in a detail not shown here. Equal values may be shown once.

Tests used:
[1] = system: transcallosal ausgelöster Potentiale; assay: Influence on transcallosally evoked potentials in awake rats fixed in a stereotactic apparatus; assay type: in vivo, weiblichen Wistarratten; details: 1 mg/kg i.p.
Excerpt: 3. Beeinflussung transcallosal ausgelöster Potentiale
Methodik in Anlehnung an C.Giurgea und F.Moyersoons, Arch.Int.Pharmacodyn.199,(1972) 67
Die Untersuchung wurde an wachen, im stereotaktischen Apparat fixierten weiblichen Wistarratten durchgeführt.

Vena femoralis = assay: Contraction of isolated human vessel preparations, vein; parameters: species or system menschlichen
Excerpt: (§1) 6. Untersuchungen an isolierten menschlichen Gefäßpräparaten
(§2) (Vena und Arteria femoralis)
(§3) Glusa, E. und F. Markwardt, Pharmacolgy 24 (1982) 287 sowie Naunyn-Schmiedebergs-Arch. Pharmacol. 323 (1983) 101

Maus = assay: Porsolt swim test (immobility duration); assay type: in vivo
Ratten = assay: SFT test (spinal cord fixation time); assay type: in vivo
Excerpt: 4. SFT-Test (Spinal cord fixation time)
C.Giurgea und F.Mouravieff-Lesmisse Arch.Intern.Pharmacodyn.191 (1971) 279
Es ist die Anzahl der Tiere mit persistierender Asymmetrie zur Gesamtzahl der eingesetzten Ratten aufgeführt.

[2] = system: vas deferens des Meerschweinchens; assay: Noradrenaline antagonism on isolated vas deferens; details: Cavia porcellus, read-out: Hemmung (x̄ ± sx̄) in %
Excerpt: 5. Noradrenalin-Antagonismus
Noradrenalin-Antagonismus am vas deferens des Meerschweinchens

Arteria femoralis = assay: Contraction of isolated human vessel preparations, artery; parameters: species or system menschlichen
Excerpt: as §1, §2, §3

| SMILES | Amplitudenbeeinflussung b.max.Reizintensität neg.Welle ([1]; 60') | Amplitudenbeeinflussung b.max.Reizintensität pos.Welle ([1]; 60') | Amplitudenbeeinflussung b.mittl.Reizintensität neg.Welle ([1]; 60') | Amplitudenbeeinflussung b.mittl.Reizintensität pos.Welle ([1]; 60') | Amplitudenbeeinflussung b.max.Reizintensität neg.Welle ([1]; 120') | Amplitudenbeeinflussung b.max.Reizintensität pos.Welle ([1]; 120') | Amplitudenbeeinflussung b.mittl.Reizintensität neg.Welle ([1]; 120') | Amplitudenbeeinflussung b.mittl.Reizintensität pos.Welle ([1]; 120') | Amplitudenbeeinflussung b.max.Reizintensität neg.Welle ([1]; 180') | Amplitudenbeeinflussung b.max.Reizintensität pos.Welle ([1]; 180') | Amplitudenbeeinflussung b.mittl.Reizintensität neg.Welle ([1]; 180') | Amplitudenbeeinflussung b.mittl.Reizintensität pos.Welle ([1]; 180') | Amplitudenbeeinflussung b.max.Reizintensität neg.Welle ([1]; VW = Vorwert (pre-dose value)) | Amplitudenbeeinflussung b.max.Reizintensität pos.Welle ([1]; VW = Vorwert (pre-dose value)) | Amplitudenbeeinflussung b.mittl.Reizintensität neg.Welle ([1]; VW = Vorwert (pre-dose value)) | Amplitudenbeeinflussung b.mittl.Reizintensität pos.Welle ([1]; VW = Vorwert (pre-dose value)) | Immobilitätsdauer (sec) x̄ ± sx̄ (Maus; 1 mg/kg i.p.) | Immobilitätsdauer (sec) x̄ ± sx̄ (Maus; 3 mg/kg p.o.) | further results |
| --- | --- | --- | --- | --- | --- | --- | --- | --- | --- | --- | --- | --- | --- | --- | --- | --- | --- | --- | --- |
| CC(=O)OCCN(CCOC(C)=O)C(=O)[C@@H]1C[C@@H]2c3cccc4[nH]cc(c34)C[C@H]2N(C)C1 [1 a, 9,10-Dihydrolysergsäure-bis-(β-acetoxyethyl)amid] | 0,40±0,03 µV | 0,42±0,03 µV | 0,23±0,03 µV | *0,26±0,03 µV | *0,40±0,02 µV | 0,41±0,02 µV | *0,25±0,03 µV | *0,27±0,03 µV | 0,39±0,02 µV | 0,42±0,02 µV | 0,23±0,03 µV | *0,25±0,02 µV | 0,34±0,03 µV | 0,38±0,03 µV | 0,18±0,02 µV | 0,19±0,02 µV | 202,6 ± 1,8 sec | – | pharmakologisch wertvolle Nebenwirkungen (Vena femoralis; statement in words): Tonisierung der Venen; Anzahl der Tiere mit persistierender Asymmetrie zur Gesamtzahl der eingesetzten Ratten (Ratten; Dosis ip. 2 mg/kg): 5/10; inhibition at 10 µM ([2]; Konzentration 10^-5 mol/l): 60.7%; inhibition at 1 µM ([2]; Konzentration 10^-6 mol/l): 14.7%; inhibition at 0.1 µM ([2]; Konzentration 10^-7 mol/l): 4.4% |
| CC(=O)OCCN(CCOC(C)=O)C(=O)[C@@H]1C[C@@H]2c3cccc4c3c(cn4C)C[C@H]2N(C)C1 [1 c, 1-Methyl-9,10-dihydrolysergsäure-bis-(ß-acetoxyethyl)-amid] | – | – | – | – | – | – | – | – | – | – | – | – | – | – | – | – | – | 203,6 ± 5,9 sec | – |
| CCC(=O)OCCN(CCOC(=O)CC)C(=O)[C@@H]1C[C@@H]2c3cccc4c3c(cn4C)C[C@H]2N(C)C1 [1 e, 1-Methyl-9,10-dihydrolysergsäure-bis-(ß-propionylethyl)-amid] | – | – | – | – | – | – | – | – | – | – | – | – | – | – | – | – | – | 210,0 ± 3,8 sec | – |
| CC(=O)OCCN(CCOC(C)=O)C(=O)[C@@H]1C[C@@H]2c3cccc4c3c(cn4Cc3cccc(F)c3)C[C@H]2N(C)C1 [1 l, 1-(3'-Fluorbenzyl)-9,10-dihydrolysergsäure-bis-(ß-acetoxyethyl)-amid] | – | – | – | – | – | – | – | – | – | – | – | – | – | – | – | – | 199,4 ± 2,3 sec | – | – |
| CN1C[C@H](C(=O)N[C@]2(C)O[C@@]3(O)[C@@H]4CCCN4C(=O)[C@H](Cc4ccccc4)N3C2=O)C[C@@H]2c3cccc4[nH]cc(c34)C[C@H]21 [Dihydro-ergo-tamin] | – | – | – | – | – | – | – | – | – | – | – | – | – | – | – | – | – | – | %-Kontraktion bezogen auf NA (Arteria femoralis): 8,8 ± 8%; %-Kontraktion bezogen auf NA (Vena femoralis): 61 ± 24% and 52 ± 18% |
| CO[C@]12C[C@@H](COC(=O)c3cncc(Br)c3)CN(C)[C@@H]1Cc1cn(C)c3cccc2c13 [Nicergolin, 10a-Methoxy-1,6-dimethyl-ergolin-8ß-methanol-(5'-bromnicotinat), reference compound] | 0,41±0,03 µV | 0,40±0,02 µV | 0,24±0,02 µV | 0,24±0,01 µV | 0,38±0,02 µV | 0,36±0,02 µV | 0,23±0,02 µV | 0,22±0,02 µV | 0,39±0,04 µV | 0,39±0,04 µV | 0,21±0,01 µV | 0,19±0,02 µV | 0,39±0,02 µV | 0,39±0,02 µV | 0,23±0,02 µV | 0,23±0,02 µV | 196,7 ± 5,6 sec | – | Anzahl der Tiere mit persistierender Asymmetrie zur Gesamtzahl der eingesetzten Ratten (Ratten; Dosis ip. 1 mg/kg): 2/10; Anzahl der Tiere mit persistierender Asymmetrie zur Gesamtzahl der eingesetzten Ratten (Ratten; Dosis ip. 3 mg/kg): 4/6 |
